Key:
Assay type in all cases: cell-based, human
HCT-116 cells [1] = assay: Proliferation inhibition assay of cancer cells (Test Example 1), HCT-116; settings: HCT-116 cells, cultured for 4 days, Cell Titer-Glo, read-out: IC50 (μM) HCT, concentration for 50% inhibition of cell proliferation (Bulk IC50 value)
Protocol: (§1) HCT-116 cells (derived from human colon adenocarcinoma), HT-29 cells (derived from human colon cancer), and FaDu cells (derived from human hypopharynx cancer) were obtained from American Type Culture Collection (ATCC). […] After cells were seeded at 300-600 cells/well onto black μClear-plate 384 well (Greiner bio-one Cat. No. 781091), a test substance was added such that the final concentration of DMSO is 0.1%, and cultured for 4 days. […] A test shown in Test example 1 was carried out for compounds obtained in the Examples.

FaDu cells [2] = assay: Proliferation inhibition assay of cancer cells (Test Example 1), FaDu; settings: FaDu cells, cultured for 4 days, Cell Titer-Glo, read-out: IC50 (μM) FaDu, concentration for 50% inhibition of cell proliferation (Bulk IC50 value)
Protocol: as §1

FaDu cells [3] = assay: Inhibition assay of cancer cell sphere-forming ability (Test Example 2), FaDu; settings: FaDu cells, Ultra-Low Attachment plate, serum-free DMEM/F12 with B27, EGF, bFGF, insulin, 4 days, Cell Titer-Glo, read-out: IC50 (μM) FaDu, concentration for 50% inhibition of cell proliferation (Sphere IC50 value)
Protocol: (§2) HCT-116 cells (derived from human colon adenocarcinoma), HT-29 cells (derived from human colon cancer), FaDu cells (derived from human hypopharynx cancer) were obtained from American Type Culture Collection (ATCC). […] HCT-116 cells, HT-29 cells, and FaDu cells were seeded onto 384 Well Black Clear Bottom Ultra-Low Attachment Microplate (Corning Cat. […] A test substance was added so that the final concentration of DMSO is 0.1%, and then cultured for 4 days. […] A test shown in Test example 2 was carried out for compounds obtained in the Examples.

HT-29 cells [4] = assay: Inhibition assay of cancer cell sphere-forming ability (Test Example 2), HT-29; settings: HT-29 cells, Ultra-Low Attachment plate, serum-free DMEM/F12 with B27, EGF, bFGF, insulin, 4 days, Cell Titer-Glo, read-out: IC50 (μM) HT, concentration for 50% inhibition of cell proliferation (Sphere IC50 value)
Protocol: as §2

HT-29 cells [5] = assay: Proliferation inhibition assay of cancer cells (Test Example 1), HT-29; settings: HT-29 cells, cultured for 4 days, Cell Titer-Glo, read-out: IC50 (μM) HT, concentration for 50% inhibition of cell proliferation (Bulk IC50 value)
Protocol: as §1

HCT-116 cells [6] = assay: Inhibition assay of cancer cell sphere-forming ability (Test Example 2), HCT-116; settings: HCT-116 cells, Ultra-Low Attachment plate, serum-free DMEM/F12 with B27, EGF, bFGF, insulin, 4 days, Cell Titer-Glo, read-out: IC50 (μM) HCT, concentration for 50% inhibition of cell proliferation (Sphere IC50 value)
Protocol: as §2

Row | SMILES | IC50 (HCT-116 cells [1]; Homo sapiens, HCT-116, 96 h) [µM] | IC50 (FaDu cells [2]; Homo sapiens, FaDu, 96 h) [µM] | IC50 (FaDu cells [3]; Homo sapiens, FaDu, 96 h) [µM] | IC50 (HT-29 cells [4]; Homo sapiens, HT-29, 96 h) [µM] | IC50 (HT-29 cells [5]; Homo sapiens, HT-29, 96 h) [µM] | IC50 (HCT-116 cells [6]; Homo sapiens, HCT-116, 96 h) [µM] | IC50 (HCT-116 cells [1]) [µM] | IC50 (FaDu cells [2]) [µM] | IC50 (FaDu cells [3]) [µM] | IC50 (HT-29 cells [4]) [µM] | IC50 (HT-29 cells [5]) [µM] | IC50 (HCT-116 cells [6]) [µM]
1 | O=C(NCC(F)F)c1cc2c(s1)C(=O)c1ncccc1C2=O [Example 40, N-(2,2-difluoroethyl)-4,9-dioxo-4,9-dihydroxythieno[3,2-g]quinoline-2-carboxyamide] |  |  |  |  |  |  | 0.07 | 0.05 | 0.05 | 0.51 | 0.55 | 0.08
2 | C#Cc1cc2c(s1)C(=O)c1ccncc1C2=O [Example 61, 2-ethynylthieno[2,3-g]isoquinoline-4,9-dione] | 0.19 | 0.05 | 0.05 | 0.24 | 0.54 | 0.28 |  |  |  |  |  | 
3 | O=C1c2cc(CN3CCOCC3)sc2C(=O)c2nccnc21 [Example 59, 7-(morpholin-4-ylmethyl)thieno[2,3-g]quinoxaline-5,9-dione] | 0.28 | 0.36 | 0.06 | 0.63 | 0.84 | 0.05 |  |  |  |  |  | 
4 | CCN(Cc1ccncc1)Cc1cc2c(s1)C(=O)c1cccnc1C2=O [Example 8, 2-{[ethyl(pyridin-4-ylmethyl)amino]methyl}thieno[2,3-g]quinoline-4,9-dione] |  |  |  |  |  |  | 0.38 | 0.37 | 0.32 | 0.6 | 0.83 | 0.41
5 | CC(O)c1cc2c(o1)C(=O)c1ncccc1C2=O (stereo not drawn) [Example 51, 2-(1-hydroxyethyl)furo[3,2-g]quinoline-4,9-dione] | 0.39 | 0.49 | 0.08 | 0.43 | 0.84 | 0.09 |  |  |  |  |  | 
6 | CC(O)c1cc2c(o1)C(=O)c1sccc1C2=O (stereo not drawn) [Example 53, 2-(1-hydroxyethyl)thieno[3,2-f][1]benzofuran-4,8-dione] | 0.55 | 0.64 | 0.45 | 0.59 | 0.68 | 0.56 |  |  |  |  |  | 
7 | CC(=O)c1cc2c(o1)C(=O)c1ccsc1C2=O [Example 56, 2-acetylthieno[2,3-f][1]benzofuran-4,8-dione] | 0.09 | 0.56 | 0.08 | 0.58 | 0.62 | 0.06 |  |  |  |  |  | 
8 | CC(=O)c1cc2c(s1)C(=O)c1ncccc1C2=O [Example 36, 2-acetylthieno[3,2-g]quinoline-4,9-dione] | 0.1 | 0.09 | 0.05 | 0.25 | 0.73 | 0.07 |  |  |  |  |  | 
9 | CC1CNCC(C)(C(=O)c2cc3c(s2)C(=O)c2ncccc2C3=O)C1 (stereo not drawn) [Example 39, 2-[(3,5-dimethylpiperidin-5-yl)carbonyl]thieno[3,2-g]quinoline-4,9-dione] | 0.38 | 0.09 | 0.45 | 0.55 | 3.71 | 0.35 |  |  |  |  |  | 
10 | O=C1c2ccncc2C(=O)c2c(C(=O)N3CCOCC3)csc21 [Example 22, 3-(morpholin-4-ylcarbonyl)thieno[2,3-g]isoquinoline-4,9-dione] | 0.48 | 0.44 | 0.31 | 0.16 | 0.81 | 0.5 |  |  |  |  |  | 
11 | C[C@@H]1CN(C(=O)c2cc3c(s2)C(=O)c2nccnc2C3=O)C[C@H](C)O1 [Example 58, 7-{[(2R,6S)-2,6-dimethylmorpholin-4-yl]carbonyl}thieno[2,3-g]quinoxaline-5,9-dione] | 0.64 | 3.71 | 0.76 | 5.97 | 7.06 | 0.56 |  |  |  |  |  | 
12 | CCN(Cc1cc2c(o1)C(=O)c1cccnc1C2=O)C(=O)CC(C)C [Example 9, N-[(4,9-dioxo-4,9-dihydrofuro[2,3-g]quinolin-2-yl)methyl]-N-ethyl-3-methylbutanamide] | 0.53 | 0.6 | 0.1 | 0.61 | > 10 | 0.28 |  |  |  |  |  | 

Continued, in another order:

Row | IC50 (HCT-116 cells [1]; Homo sapiens, HCT-116, 96 h) [µM] | IC50 (FaDu cells [2]; Homo sapiens, FaDu, 96 h) [µM] | IC50 (FaDu cells [3]; Homo sapiens, FaDu, 96 h) [µM] | IC50 (HT-29 cells [4]; Homo sapiens, HT-29, 96 h) [µM] | IC50 (HT-29 cells [5]; Homo sapiens, HT-29, 96 h) [µM] | IC50 (HCT-116 cells [6]; Homo sapiens, HCT-116, 96 h) [µM] | SMILES | IC50 (HCT-116 cells [1]) [µM] | IC50 (FaDu cells [2]) [µM] | IC50 (FaDu cells [3]) [µM] | IC50 (HT-29 cells [4]) [µM] | IC50 (HT-29 cells [5]) [µM] | IC50 (HCT-116 cells [6]) [µM]
13 | 0.06 | 0.08 | 0.06 | 0.49 | 0.62 | 0.06 | CC(O)c1cc2c(s1)C(=O)c1ncccc1C2=O (stereo not drawn) [Example 37, 2-(1-hydroxyethyl)thieno[3,2-g]quinoline-4,9-dione] |  |  |  |  |  | 
14 | 0.08 | 0.1 | 0.12 | 0.55 | 0.86 | 0.23 | CC(O)c1cc2c(s1)C(=O)c1cccnc1C2=O (stereo not drawn) [Example 2, 2-(1-hydroxyethyl)thieno[2,3-g]quinoline-4,9-dione] |  |  |  |  |  | 
15 | 1 | 0.57 | 0.63 | > 10 | > 10 | 5.71 | O=C1c2cnccc2C(=O)c2sc(COCc3ccccc3)cc21 [Example 18, 2-[(benzyloxy)methyl]thieno[2,3-g]isoquinoline-4,9-dione] |  |  |  |  |  | 
16 | 6.56 | 2.15 | 1.25 | > 10 | > 10 | 7.7 | O=C1c2cnccc2C(=O)c2sc(N3CCOCC3)cc21 [Example 32, 2-(morpholin-4-yl)thieno[2,3-g]isoquinoline-4,9-dione] |  |  |  |  |  | 
17 | 2.71 | 0.75 | 0.83 | 8.98 | > 10 | 7.41 | CCOC(=O)/C=C/c1cc2c(s1)C(=O)c1ccncc1C2=O [Example 60, ethyl (E)-3-(4,9-dioxo-4,9-dihydrothieno[2,3-g]isoquinolin-2-yl)acrylate] |  |  |  |  |  | 
18 | 0.47 | 0.08 | 0.09 | 0.59 | 0.63 | 0.57 | O=C1c2cnccc2C(=O)c2sc(CN(CC(F)F)C(=O)C3CCCCC3)cc21 [Example 28, N-(2,2-difluoroethyl)-N-((4,9-dioxo-4,9-dihydrothieno[2,3-g]isoquinolin-2-yl)methyl)cyclohexanecarboxamide] |  |  |  |  |  | 
19 | 0.47 | 0.47 | 0.17 | 0.58 | 0.59 | 0.26 | CC(=O)c1cc2c(o1)C(=O)c1ncccc1C2=O [Example 50, 2-acetylfuro[3,2-g]quinoline-4,9-dione] |  |  |  |  |  | 
20 | 0.54 | 0.47 | 0.08 | 0.59 | 0.72 | 0.31 | CC(=O)c1cc2c(o1)C(=O)c1cccnc1C2=O [Example 42, 2-acetylfuro[2,3-g]quinoline-4,9-dione] |  |  |  |  |  | 
21 | 0.07 | 0.43 | 0.06 | 0.08 | 0.64 | 0.05 | CC(=O)c1cc2c(o1)C(=O)c1sccc1C2=O [Example 52, 2-acetylthieno[3,2-f][1]benzofuran-4,8-dione] |  |  |  |  |  | 
22 | 0.06 | 0.03 | 0.03 | 0.08 | 0.52 | 0.06 | CC(O)c1cc2c(o1)C(=O)c1ccncc1C2=O (stereo not drawn) [Example 45, 2-(1-hydroxyethyl)furo[2,3-g]isoquinoline-4,9-dione] |  |  |  |  |  | 
23 | 5.71 | 8.21 | 5.65 | > 10 | > 10 | 4.97 | O=C1c2cc(C(=O)N3CCOCC3)sc2C(=O)c2nccnc21 [Example 57, 7-(morpholin-4-ylcarbonyl)thieno[2,3-g]quinoxaline-5,9-dione] |  |  |  |  |  | 
